ChEMBL document CHEMBL1152560, “Substituted 2-arylbenzothiazoles as kinase inhibitors: hit-to-lead optimization” (Bioorg Med Chem, 2009)

Key:
[1] = molecular target: T1, Myotonin-protein kinase (Homo sapiens) (UniProt Q09013); experiment: Residual activity of DMPK at 1 uM by microplate scintillation counting
T1 sequence (whole entry): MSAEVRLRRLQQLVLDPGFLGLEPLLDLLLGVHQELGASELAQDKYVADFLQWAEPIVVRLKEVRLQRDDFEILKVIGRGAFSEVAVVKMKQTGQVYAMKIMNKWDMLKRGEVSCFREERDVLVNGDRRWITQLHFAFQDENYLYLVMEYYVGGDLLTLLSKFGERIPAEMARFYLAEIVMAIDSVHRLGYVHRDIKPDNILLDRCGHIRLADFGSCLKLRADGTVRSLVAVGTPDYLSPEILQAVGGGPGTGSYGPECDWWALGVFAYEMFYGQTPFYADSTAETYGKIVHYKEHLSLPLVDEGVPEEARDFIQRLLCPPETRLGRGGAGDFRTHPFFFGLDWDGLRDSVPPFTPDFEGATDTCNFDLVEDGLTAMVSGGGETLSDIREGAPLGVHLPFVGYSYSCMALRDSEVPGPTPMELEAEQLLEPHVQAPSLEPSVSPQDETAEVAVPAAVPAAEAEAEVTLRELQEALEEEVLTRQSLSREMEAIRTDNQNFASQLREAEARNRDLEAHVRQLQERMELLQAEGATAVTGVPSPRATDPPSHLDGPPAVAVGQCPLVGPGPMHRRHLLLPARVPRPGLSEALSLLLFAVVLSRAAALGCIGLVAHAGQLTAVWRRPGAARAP

[2] = molecular target: T2, Ephrin type-B receptor 2 (Homo sapiens) (UniProt P29323); experiment: Residual activity of EPHB2 at 1 uM by microplate scintillation counting
T2 sequence (whole entry): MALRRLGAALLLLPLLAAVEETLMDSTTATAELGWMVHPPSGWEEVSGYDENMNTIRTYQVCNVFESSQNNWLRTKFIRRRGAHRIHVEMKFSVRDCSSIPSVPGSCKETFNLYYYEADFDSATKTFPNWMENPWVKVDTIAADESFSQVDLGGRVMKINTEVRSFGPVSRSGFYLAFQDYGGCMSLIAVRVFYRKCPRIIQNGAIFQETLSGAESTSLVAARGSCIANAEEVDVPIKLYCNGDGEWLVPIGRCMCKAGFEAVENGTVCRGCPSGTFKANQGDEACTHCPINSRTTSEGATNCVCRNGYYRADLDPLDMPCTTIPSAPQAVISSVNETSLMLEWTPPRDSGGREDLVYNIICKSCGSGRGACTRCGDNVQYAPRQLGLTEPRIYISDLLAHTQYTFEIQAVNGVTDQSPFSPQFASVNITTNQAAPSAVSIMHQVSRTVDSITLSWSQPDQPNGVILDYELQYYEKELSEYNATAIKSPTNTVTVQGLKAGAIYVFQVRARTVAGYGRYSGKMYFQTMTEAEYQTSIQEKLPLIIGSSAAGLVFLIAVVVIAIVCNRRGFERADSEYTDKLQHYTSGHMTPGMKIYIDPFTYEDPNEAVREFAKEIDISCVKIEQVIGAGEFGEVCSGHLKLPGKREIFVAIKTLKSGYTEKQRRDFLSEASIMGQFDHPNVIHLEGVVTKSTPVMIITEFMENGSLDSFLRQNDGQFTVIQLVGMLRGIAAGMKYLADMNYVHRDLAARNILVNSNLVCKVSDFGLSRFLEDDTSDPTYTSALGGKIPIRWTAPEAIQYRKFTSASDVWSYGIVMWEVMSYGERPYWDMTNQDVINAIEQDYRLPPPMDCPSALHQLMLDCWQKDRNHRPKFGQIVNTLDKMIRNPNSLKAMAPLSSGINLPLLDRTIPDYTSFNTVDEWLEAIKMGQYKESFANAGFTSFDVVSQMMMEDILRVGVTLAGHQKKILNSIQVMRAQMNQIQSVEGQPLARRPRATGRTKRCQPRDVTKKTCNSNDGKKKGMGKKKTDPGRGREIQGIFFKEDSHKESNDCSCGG

[3] = molecular target: Myosin light chain kinase 2, skeletal/cardiac muscle (Homo sapiens) (UniProt Q9H1R3); experiment: Residual activity of MYLK2 at 0.1 uM by microplate scintillation counting
[4] = molecular target: SRSF protein kinase 3 (Homo sapiens) (UniProt Q9UPE1); experiment: Residual activity of STK23 at 1 uM by microplate scintillation counting
[5] = molecular target: Calcium/calmodulin-dependent protein kinase kinase 2 (Homo sapiens) (UniProt Q96RR4); experiment: Residual activity of CAMKK2 at 1 uM by microplate scintillation counting
[6] = molecular target: T3, Testis-specific serine/threonine-protein kinase 2 (Homo sapiens) (UniProt Q96PF2); experiment: Residual activity of TSK2 at 10 uM by microplate scintillation counting
T3 sequence (whole entry): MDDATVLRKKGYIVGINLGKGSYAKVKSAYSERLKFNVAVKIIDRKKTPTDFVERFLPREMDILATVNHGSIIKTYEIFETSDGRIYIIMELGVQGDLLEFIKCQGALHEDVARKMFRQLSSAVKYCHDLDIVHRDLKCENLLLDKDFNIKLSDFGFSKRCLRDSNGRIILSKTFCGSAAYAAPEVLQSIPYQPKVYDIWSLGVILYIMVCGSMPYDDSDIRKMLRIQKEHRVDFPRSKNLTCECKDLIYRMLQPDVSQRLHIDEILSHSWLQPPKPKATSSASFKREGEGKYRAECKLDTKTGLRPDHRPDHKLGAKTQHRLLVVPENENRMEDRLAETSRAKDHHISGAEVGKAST

[7] = molecular target: Tyrosine-protein kinase Yes (Homo sapiens) (UniProt P07947); experiment: Residual activity of YES at 10 uM by microplate scintillation counting
Tyrosine-protein kinase Yes (Homo sapiens), sequence (P07947 2-543 limits assumed): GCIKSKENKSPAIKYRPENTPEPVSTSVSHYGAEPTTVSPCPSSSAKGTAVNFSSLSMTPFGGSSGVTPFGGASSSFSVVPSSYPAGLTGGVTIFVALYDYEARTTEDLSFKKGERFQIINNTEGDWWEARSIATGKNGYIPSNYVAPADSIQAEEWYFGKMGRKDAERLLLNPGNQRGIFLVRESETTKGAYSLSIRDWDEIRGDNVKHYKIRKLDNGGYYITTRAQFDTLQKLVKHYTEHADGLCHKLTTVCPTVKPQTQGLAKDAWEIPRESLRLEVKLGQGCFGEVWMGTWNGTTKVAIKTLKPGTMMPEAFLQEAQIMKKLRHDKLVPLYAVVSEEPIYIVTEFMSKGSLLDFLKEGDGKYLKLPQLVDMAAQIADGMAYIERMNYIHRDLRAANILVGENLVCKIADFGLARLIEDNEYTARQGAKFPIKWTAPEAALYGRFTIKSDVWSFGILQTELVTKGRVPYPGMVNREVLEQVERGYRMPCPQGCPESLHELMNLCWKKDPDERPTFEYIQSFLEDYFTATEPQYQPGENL

SRSF protein kinase 3 (Homo sapiens), sequence (Q9UPE1 whole entry): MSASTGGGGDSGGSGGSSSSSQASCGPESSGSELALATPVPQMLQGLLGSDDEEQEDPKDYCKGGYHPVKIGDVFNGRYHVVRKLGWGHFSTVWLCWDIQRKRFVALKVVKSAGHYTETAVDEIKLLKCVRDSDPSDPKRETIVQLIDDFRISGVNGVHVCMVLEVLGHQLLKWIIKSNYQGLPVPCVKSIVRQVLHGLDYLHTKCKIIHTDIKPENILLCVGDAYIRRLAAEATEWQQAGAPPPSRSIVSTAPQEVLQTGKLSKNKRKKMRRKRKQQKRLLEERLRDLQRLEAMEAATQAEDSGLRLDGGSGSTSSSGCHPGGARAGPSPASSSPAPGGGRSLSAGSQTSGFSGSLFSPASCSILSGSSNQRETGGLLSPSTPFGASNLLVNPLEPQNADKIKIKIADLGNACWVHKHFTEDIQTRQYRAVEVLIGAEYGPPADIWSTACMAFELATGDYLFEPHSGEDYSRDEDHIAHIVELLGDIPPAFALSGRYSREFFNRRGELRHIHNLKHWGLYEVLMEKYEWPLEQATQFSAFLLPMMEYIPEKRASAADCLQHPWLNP
Myosin light chain kinase 2, skeletal/cardiac muscle (Homo sapiens), sequence (Q9H1R3 whole entry): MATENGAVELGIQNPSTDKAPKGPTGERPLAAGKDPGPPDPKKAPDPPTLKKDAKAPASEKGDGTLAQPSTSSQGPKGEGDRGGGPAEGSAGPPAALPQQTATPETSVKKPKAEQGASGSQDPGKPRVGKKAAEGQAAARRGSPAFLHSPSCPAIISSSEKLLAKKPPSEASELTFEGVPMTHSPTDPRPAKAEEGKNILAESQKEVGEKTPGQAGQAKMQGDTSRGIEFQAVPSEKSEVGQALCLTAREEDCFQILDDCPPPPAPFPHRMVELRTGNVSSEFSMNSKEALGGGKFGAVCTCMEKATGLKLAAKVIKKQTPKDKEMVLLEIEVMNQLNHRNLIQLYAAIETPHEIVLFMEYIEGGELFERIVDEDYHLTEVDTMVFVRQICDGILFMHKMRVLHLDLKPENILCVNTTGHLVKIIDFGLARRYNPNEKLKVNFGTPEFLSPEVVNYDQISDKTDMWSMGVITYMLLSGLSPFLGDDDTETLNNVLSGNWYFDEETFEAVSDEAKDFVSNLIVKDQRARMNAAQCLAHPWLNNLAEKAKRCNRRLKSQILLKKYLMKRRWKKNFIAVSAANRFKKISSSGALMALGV
Calcium/calmodulin-dependent protein kinase kinase 2 (Homo sapiens), sequence (Q96RR4 2-588 limits assumed): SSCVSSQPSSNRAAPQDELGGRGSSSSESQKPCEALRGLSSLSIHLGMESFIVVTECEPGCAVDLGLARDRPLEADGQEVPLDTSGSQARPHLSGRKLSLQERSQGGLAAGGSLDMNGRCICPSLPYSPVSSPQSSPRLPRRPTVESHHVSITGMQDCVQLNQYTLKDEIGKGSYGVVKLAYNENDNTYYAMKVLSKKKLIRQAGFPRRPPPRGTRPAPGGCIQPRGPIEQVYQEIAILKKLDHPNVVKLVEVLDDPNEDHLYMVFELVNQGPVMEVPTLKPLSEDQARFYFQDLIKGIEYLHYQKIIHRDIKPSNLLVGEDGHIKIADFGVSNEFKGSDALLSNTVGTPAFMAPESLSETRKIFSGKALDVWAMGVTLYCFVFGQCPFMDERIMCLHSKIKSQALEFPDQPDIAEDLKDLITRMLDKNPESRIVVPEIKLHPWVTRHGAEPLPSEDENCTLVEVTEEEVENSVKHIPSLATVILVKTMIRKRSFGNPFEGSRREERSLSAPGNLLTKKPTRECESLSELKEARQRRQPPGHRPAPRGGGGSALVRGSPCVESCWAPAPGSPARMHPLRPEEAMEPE

residual activity [1] | residual activity [2] | residual activity [3] | residual activity [4] | residual activity [5] | residual activity [6] | residual activity [7] | SMILES
104% | 98% | 33% | 83% | 85% | 110% | 101% | COc1cc2c(Oc3ccc(-c4nc5ccccc5s4)cc3)ncnc2cc1OCCCN1CCCC1
121% | 72% | 93% | 87% | 90% | 111% | 14% | COc1cc2c(Oc3ccc(-c4nc5ccccc5s4)cc3F)ncnc2cc1OCCCN1CCN(C)CC1
106% | 86% | 83% | 95% | 91% | 109% | 55% | COc1cc2c(Oc3ccc(-c4nc5ccccc5s4)cc3)ncnc2cc1OCCCN1CCN(C)CC1
